Measured values taken from ChEMBL document CHEMBL1149036, “Swertifrancheside, an HIV-reverse transcriptase inhibitor and the first flavone-xanthone dimer, from Swertia franchetiana” (J Nat Prod, 1994).
In brackets after ≈: the same amount, converted by molar mass.

Key:
[1] = target: Human immunodeficiency virus type 1 reverse transcriptase (Human immunodeficiency virus 1) (UniProt Q72547); experiment: Inhibition of HIV1 reverse transcriptase
[2] = target: Human immunodeficiency virus type 1 reverse transcriptase (Human immunodeficiency virus 1) (UniProt Q72547); experiment: Inhibition of HIV1 reverse transcriptase at 200 ug/mL

ED50 [1] [µg/mL] | inhibition [2] [%] | Compound
3 (≈ 4.32 µM) |  | COc1cc(O)c2c(=O)c3c(O)c(-c4c(O)c([C@@H]5O[C@H](CO)[C@@H](O)[C@H](O)[C@H]5O)c(O)c5c(=O)c6cc(O)c(O)cc6oc45)cc(O)c3oc2c1
30.9 (≈ 42.9 µM) | 99.8 | COc1cc(O)c2c(=O)c3c(O)c(-c4c(O)c([C@@H]5O[C@H](CO)[C@@H](O)[C@H](O)[C@H]5O)c(O)c5c(=O)cc(-c6ccc(O)c(O)c6)oc45)cc(O)c3oc2c1
